From patent US20160024414A1, “IONIC LIQUIDS AS L[…] BASE STOCKS, COBASE STOCKS AND MULTI[…]” ([…] AND ENGINEERING COMPANY, priority 2012, published 2016)

Key:
[1] = Kinematic viscosity (ASTM D-445); format: physicochemical
Protocol: The kinematic viscosity (Kv) of the ionic liquid products of Examples 2-5, 7 and 8 was measured using ASTM standards D-445 and reported at temperatures of 100° C. (Kv at 100° C.) or 40° C. (Kv at 40° C.). The viscosity index (VI) was measured according to ASTM standard D-2270 using the measured kinematic viscosities for each product.

## tetradecylammonium bis(2-ethylhexyl) phosphate [Example 4]
[1]
  Kv100 (kinematic viscosity at 100° C.): > 150 cSt

## 1-butyl-3-hexylimidazolium bis(2-ethylhexyl) phosphate [Example 7]
solvent: AN (alkylated naphthalene)
  solubility in AN (alkylated naphthalene): 5%

## dihexadecyldimethylammonium bis(2-ethylhexyl) phosphate [Example 8]
solvent: PAO4
  solubility in PAO4 (in words): soluble
